Test results reported in patent US20240246908A1 (ORION CORPORATION, priority 2021, published 2024).

Each compound was assayed on YAP-TEAD (assay: TEAD inhibition, Hippo Pathway TEAD Reporter MCF-7 luciferase assay). Settings: Homo sapiens, MCF7, 24 h, Hippo Pathway TEAD Reporter MCF-7 cells, luciferase activity after 24 h; read-out: IC50 of the test compounds on YAP-TEAD inhibition (Group).
Type: cell-based
Summary of the method: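 IC50 derived from ONE-Glo luciferase luminescence after 24 h compound exposure (11 concentrations in quadruplicate, 0.1% DMSO control). Reporter: MCF-7 line expressing firefly luciferase under TEAD elements, constitutively activated by nuclear YAP1.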

| SMILES | IC50 [µM] |
| --- | --- |
| COc1ccc(Oc2ccc(Cl)cc2)cc1NC(=O)[C@H]1CCC(=O)N1C [Compound 308, (R)—N-(5-(4-Chlorophenoxy)-2-methoxyphenyl)-1-methyl-5-oxopyrrolidine-2-carboxamide] | < 0.05 |
| COc1ccc(Oc2ccc(C#N)c(Cl)c2)cc1NC(=O)C1CCC(=O)N1C (stereo not drawn) [Compound 309, N-(5-(3-Chloro-4-cyanophenoxy)-2-methoxyphenyl)-1-methyl-5-oxopyrrolidine-2-carboxamide] | 0.05 to 0.3 |
| COc1ccc(Oc2ccc(C#N)c(Cl)c2)cc1NC(=O)[C@@H]1CCC(=O)N1C [Compound 310, (S)—N-(5-(3-Chloro-4-cyanophenoxy)-2-methoxyphenyl)-1-methyl-5-oxo-pyrrolidine-2-carboxamide] | 0.05 to 0.3 |
| COc1ccc(Oc2ccc(C(F)(F)F)cc2)cc1NC(=O)[C@@H]1CCCN1S(C)(=O)=O [Compound 311, (S)—N-(2-Methoxy-5-(4-(trifluoromethyl)phenoxy)phenyl)-1-(methylsulfonyl)-pyrrolidine-2-carboxamide] | 0.301 to 2 |
| COc1ccc(Oc2ccc(Cl)c(F)c2)cc1NC(=O)[C@@H]1CCC(=O)N1C [Compound 312, (S)—N-(5-(4-Chloro-3-fluorophenoxy)-2-methoxyphenyl)-1-methyl-5-oxo-pyrrolidine-2-carboxamide] | < 0.05 |
| COc1ccc(Oc2ccc(C(F)F)cc2)cc1NC(=O)[C@@H]1CCC(=O)N1C [Compound 313, (S)—N-(5-(4-(Difluoromethyl)phenoxy)-2-methoxyphenyl)-1-methyl-5-oxo-pyrrolidine-2-carboxamide] | < 0.05 |
| COc1ccc(Oc2ccc3c(c2)CCO3)cc1NC(=O)C1CCC(=O)N1C (stereo not drawn) [Compound 315, N-(5-((2,3-Dihydrobenzofuran-5-yl)oxy)-2-methoxyphenyl)-1-methyl-5-oxopyrrolidine-2-carboxamide] | 0.05 to 0.3 |
| COc1ccc(Oc2cccc(Cl)c2)cc1NC(=O)C1CCC(=O)N1C (stereo not drawn) [Compound 316, N-(5-(3-Chlorophenoxy)-2-methoxyphenyl)-1-methyl-5-oxopyrrolidine-2-carboxamide] | < 0.05 |
| COCCN1C(=O)CCC1C(=O)Nc1cc(Oc2ccc(C(F)(F)F)cc2)ccc1OC (stereo not drawn) [Compound 318, N-(2-Methoxy-5-(4-(trifluoromethyl)phenoxy)phenyl)-1-(2-methoxyethyl)-5-oxopyrrolidine-2-carboxamide] | < 0.05 |
| COc1ccc(Oc2ccc(C(F)F)cc2)cc1NC(=O)[C@H]1CCC(=O)N1C [Compound 319, (R)—N-(5-(4-(Difluoromethyl)phenoxy)-2-methoxyphenyl)-1-methyl-5-oxo-pyrrolidine-2-carboxamide] | < 0.05 |
| COc1ccc(Oc2ccc(C(F)(F)F)cc2)cc1NC(=O)C1CCCC(=O)N1C (stereo not drawn) [Compound 320, N-(2-Methoxy-5-(4-(trifluoromethyl)phenoxy)phenyl)-1-methyl-6-oxo-piperidine-2-carboxamide] | < 0.05 |
| COc1ccc(Oc2ccc(F)c(F)c2)cc1NC(=O)C1CCCC(=O)N1C (stereo not drawn) [Compound 321, N-(5-(3,4-Difluorophenoxy)-2-methoxyphenyl)-1-methyl-6-oxopiperidine-2-carboxamide] | 0.05 to 0.3 |
| COc1ccc(Oc2ccc(C(F)(F)F)cc2)cc1NC(=O)C1CCNC(=O)C1 (stereo not drawn) [Compound 322, N-(2-Methoxy-5-(4-(trifluoromethyl)phenoxy)phenyl)-2-oxopiperidine-4-carboxamide] | < 0.05 |
| COc1ccc(Oc2ccc(C(F)(F)F)cc2)cc1NC(=O)C1CCN(C)C(=O)C1 (stereo not drawn) [Compound 323, N-(2-Methoxy-5-(4-(trifluoromethyl)phenoxy)phenyl)-1-methyl-2-oxo-piperidine-4-carboxamide] | 0.301 to 2 |
| COc1ccc(Oc2ccc(C(F)(F)F)cc2)cc1NC(=O)C1CCN(S(C)(=O)=O)C1 (stereo not drawn) [Compound 326, N-(2-Methoxy-5-(4-(trifluoromethyl)phenoxy)phenyl)-1-(methylsulfonyl)-pyrrolidine-3-carboxamide] | 0.301 to 2 |
